Series [1] addresses T1, CYP3A (Homo sapiens, UniProt P08684+P20815+P24462+Q9HB55). As to the kind of experiment: Time dependent inhibition of CYP3A in human liver microsomes using testosterone as substrate at 10 uM by LC-MS/MS analysis relative to control. To be noted: probe testosterone, read-out: TDI. The series is classed as ADME, Microsome. On the technique in general: Liver microsomes are vesicles of endoplasmic reticulum, rich in cytochrome P450 enzymes.

The target in series [2] is T2, CYP2C9 (Homo sapiens, UniProt P11712). As to the kind of experiment: Inhibition of CYP2C9 in human liver microsomes at 10 uM by LC-MS/MS analysis relative to control. The series is classed as ADME, Microsome.
The target of series [3] is T3, CYP2B6 (Homo sapiens, UniProt P20813).
T3 sequence (P20813 whole entry): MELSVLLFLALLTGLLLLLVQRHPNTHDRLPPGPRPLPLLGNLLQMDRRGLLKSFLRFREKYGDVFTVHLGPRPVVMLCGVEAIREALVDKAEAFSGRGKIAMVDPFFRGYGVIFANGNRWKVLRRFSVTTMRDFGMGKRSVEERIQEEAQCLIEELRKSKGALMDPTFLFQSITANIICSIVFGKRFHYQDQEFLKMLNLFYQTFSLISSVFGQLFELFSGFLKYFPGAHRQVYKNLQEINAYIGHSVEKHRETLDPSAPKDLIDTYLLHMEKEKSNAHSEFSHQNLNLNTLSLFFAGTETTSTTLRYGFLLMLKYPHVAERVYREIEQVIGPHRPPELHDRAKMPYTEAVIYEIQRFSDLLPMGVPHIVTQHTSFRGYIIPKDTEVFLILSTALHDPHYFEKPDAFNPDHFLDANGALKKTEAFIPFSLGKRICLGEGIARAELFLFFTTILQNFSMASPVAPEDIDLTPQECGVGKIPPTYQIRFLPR
Description: Time dependent inhibition of CYP2B6 in human liver microsomes at 10 uM by LC-MS/MS analysis relative to control. The series is classed as ADME, Microsome. To be noted: read-out: TDI.

Series [4] concerns the target T4, CYP2D6 (Homo sapiens, UniProt P10635). Description: Inhibition of CYP2D6 in human liver microsomes at 10 uM by LC-MS/MS analysis relative to control. The series is classed as ADME, Microsome.
A short description of series [5]: Plasma unbound drug concentration at steady state in UUO surgery-induced renal fibrosis C57BL/6J mouse model at 0.1 mg/kg/day, sc administered with mini osmotic pump measured after 3 days. The class given is ADME, organism-based. To be noted: in vivo, 72 h, time 3 day.
Series [6] in a line: Chemical stability of the compound in pH 7.4 aqueous solution assessed as degradation by measuring residual rate incubated measured after 2 weeks at 65 degC by HPLC analysis. The class given is physicochemical. The conditions noted are these: read-out: Stability.
Series [7] in a line: Volume of distribution at steady state in Sprague-Dawley rat at 0.5 mg/kg, iv. The series is classed as ADME, organism-based. To be noted: in vivo, read-out: Vdss.
The nature of series [8]: Fraction unbound in monkey. The series is classed as ADME, Macaca mulatta. To be noted: rhesus monkey.
The target in series [9] is T5, Interstitial collagenase (Homo sapiens, UniProt P03956).
T5 sequence (P03956 whole entry): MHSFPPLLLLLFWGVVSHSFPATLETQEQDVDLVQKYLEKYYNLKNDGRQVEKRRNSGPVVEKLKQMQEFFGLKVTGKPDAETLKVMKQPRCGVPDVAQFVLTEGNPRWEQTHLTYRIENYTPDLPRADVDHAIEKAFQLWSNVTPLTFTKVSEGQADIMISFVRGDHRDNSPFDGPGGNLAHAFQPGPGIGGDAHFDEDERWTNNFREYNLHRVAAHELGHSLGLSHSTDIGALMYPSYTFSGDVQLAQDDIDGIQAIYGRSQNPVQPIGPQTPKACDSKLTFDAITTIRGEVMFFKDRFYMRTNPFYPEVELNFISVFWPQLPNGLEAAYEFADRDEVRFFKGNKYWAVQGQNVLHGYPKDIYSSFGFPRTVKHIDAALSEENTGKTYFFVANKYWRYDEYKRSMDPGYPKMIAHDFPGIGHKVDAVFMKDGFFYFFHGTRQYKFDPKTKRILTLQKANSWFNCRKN
As to the kind of experiment: Inhibition of recombinant human MMP1 assessed as enzyme activity by measuring fluorescence using fluorogenic peptide substrate.

The nature of series [10]: Volume of distribution at steady state in cynomolgus monkey at 1 mg/kg, iv. The class given is ADME, organism-based, Macaca fascicularis. The conditions noted are these: in vivo, read-out: Vdss.
Series [11] has as its target T6, CYP1A2 (Homo sapiens, UniProt P05177).
T6 sequence (P05177 whole entry): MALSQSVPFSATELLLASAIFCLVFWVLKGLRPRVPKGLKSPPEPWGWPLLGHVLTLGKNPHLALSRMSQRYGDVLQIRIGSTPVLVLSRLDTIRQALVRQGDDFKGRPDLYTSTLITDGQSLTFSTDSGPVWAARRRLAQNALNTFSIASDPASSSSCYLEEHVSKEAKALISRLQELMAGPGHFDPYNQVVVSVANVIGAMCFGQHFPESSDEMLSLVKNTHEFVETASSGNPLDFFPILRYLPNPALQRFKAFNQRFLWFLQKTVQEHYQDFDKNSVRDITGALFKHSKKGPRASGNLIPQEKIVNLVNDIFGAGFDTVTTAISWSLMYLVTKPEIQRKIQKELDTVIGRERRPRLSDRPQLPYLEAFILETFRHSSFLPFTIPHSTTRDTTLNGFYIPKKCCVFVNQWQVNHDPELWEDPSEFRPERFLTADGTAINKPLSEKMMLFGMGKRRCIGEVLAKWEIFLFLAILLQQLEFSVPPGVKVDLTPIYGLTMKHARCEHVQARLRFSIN
Description: Time dependent inhibition of CYP1A2 in human liver microsomes at 10 uM by LC-MS/MS analysis relative to control. The conditions noted are these: read-out: TDI. The class given is ADME, Microsome.

Series [12] addresses T2, CYP2C9. As to the kind of experiment: Time dependent inhibition of CYP2C9 in human liver microsomes at 10 uM by LC-MS/MS analysis relative to control. The series is classed as ADME, Microsome. To be noted: read-out: TDI.
The test system of series [13] is HepG2. Description: Cytotoxicity against human HepG2 cells at 10 uM. The class given is toxicity, cell-based. The conditions noted are these: hepg2, 10 µM.
The target in series [14] is T4, CYP2D6. As to the kind of experiment: Time dependent inhibition of CYP2D6 in human liver microsomes at 10 uM by LC-MS/MS analysis relative to control. The series is classed as ADME, Microsome. To be noted: read-out: TDI.
The nature of series [15]: Plasma unbound drug concentration at steady state in UUO surgery-induced renal fibrosis C57BL/6J mouse model at 0.3 mg/kg/day, sc administered with mini osmotic pump measured after 3 days. To be noted: in vivo, 72 h, time 3 day. The class given is ADME, organism-based.
Series [16] in a line: Chemical stability of the compound in pH 4 aqueous solution assessed as degradation by measuring residual rate incubated for 24 hrs at 65 degC by HPLC analysis. The class given is physicochemical. The conditions noted are these: read-out: Activity.
The target of series [17] is Macrophage metalloelastase (Homo sapiens, UniProt P39900). As to the kind of experiment: Inhibition of recombinant human MMP12 assessed as enzyme activity by measuring fluorescence using fluorogenic peptide substrate.
Series [18] is described as follows: Clearance in Sprague-Dawley rat at 0.5 mg/kg, iv. The class given is ADME, organism-based. The conditions noted are these: in vivo.
Series [19] in a line: Chemical stability of the compound in pH 4 aqueous solution assessed as degradation by measuring residual rate incubated measured after 2 weeks at 65 degC by HPLC analysis. The class given is physicochemical. The conditions noted are these: read-out: Stability.
Series [20] can be described thus: Clearance in cynomolgus monkey at 1 mg/kg, iv. The series is classed as ADME, organism-based, Macaca fascicularis. The conditions noted are these: in vivo.
Series [21] concerns the target T1, CYP3A. As to the kind of experiment: Inhibition of CYP3A in human liver microsomes using testosterone as substrate at 10 uM by LC-MS/MS analysis relative to control. The series is classed as ADME, Microsome. To be noted: probe testosterone.

What is called fraction unbound is free concentration divided by total concentration. By IC50 is commonly meant the point on the concentration scale where inhibition reaches its midpoint. One may read the clearance as the volume of plasma or blood freed of the substance per unit of time.

Each structure is given as a SMILES string.

T4 sequence (P10635 whole entry): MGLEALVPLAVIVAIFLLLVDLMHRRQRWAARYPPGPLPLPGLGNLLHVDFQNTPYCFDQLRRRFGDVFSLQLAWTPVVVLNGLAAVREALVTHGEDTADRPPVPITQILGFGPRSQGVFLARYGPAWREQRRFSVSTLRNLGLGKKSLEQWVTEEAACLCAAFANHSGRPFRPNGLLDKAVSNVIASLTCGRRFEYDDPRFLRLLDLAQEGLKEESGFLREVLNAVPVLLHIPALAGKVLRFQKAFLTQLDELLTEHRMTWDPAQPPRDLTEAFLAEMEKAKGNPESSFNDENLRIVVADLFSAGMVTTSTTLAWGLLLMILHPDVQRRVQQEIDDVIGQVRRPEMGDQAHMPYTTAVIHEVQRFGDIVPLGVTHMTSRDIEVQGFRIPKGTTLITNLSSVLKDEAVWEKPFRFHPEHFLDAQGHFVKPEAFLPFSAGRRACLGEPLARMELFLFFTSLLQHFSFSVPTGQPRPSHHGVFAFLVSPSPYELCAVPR
T2 sequence (P11712 whole entry): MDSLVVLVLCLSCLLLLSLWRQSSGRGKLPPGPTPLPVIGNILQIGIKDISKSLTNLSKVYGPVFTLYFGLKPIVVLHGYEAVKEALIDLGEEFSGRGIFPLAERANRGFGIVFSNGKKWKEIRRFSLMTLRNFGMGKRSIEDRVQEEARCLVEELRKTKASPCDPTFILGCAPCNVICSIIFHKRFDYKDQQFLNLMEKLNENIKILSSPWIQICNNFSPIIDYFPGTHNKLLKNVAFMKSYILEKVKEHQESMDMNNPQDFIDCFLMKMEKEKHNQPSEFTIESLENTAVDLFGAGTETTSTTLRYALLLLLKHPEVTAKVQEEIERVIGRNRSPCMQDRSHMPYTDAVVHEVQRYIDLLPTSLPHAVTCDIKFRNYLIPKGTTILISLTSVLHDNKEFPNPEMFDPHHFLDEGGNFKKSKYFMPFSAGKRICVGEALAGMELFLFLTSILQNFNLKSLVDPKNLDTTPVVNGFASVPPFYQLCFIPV
Macrophage metalloelastase, sequence (P39900 whole entry): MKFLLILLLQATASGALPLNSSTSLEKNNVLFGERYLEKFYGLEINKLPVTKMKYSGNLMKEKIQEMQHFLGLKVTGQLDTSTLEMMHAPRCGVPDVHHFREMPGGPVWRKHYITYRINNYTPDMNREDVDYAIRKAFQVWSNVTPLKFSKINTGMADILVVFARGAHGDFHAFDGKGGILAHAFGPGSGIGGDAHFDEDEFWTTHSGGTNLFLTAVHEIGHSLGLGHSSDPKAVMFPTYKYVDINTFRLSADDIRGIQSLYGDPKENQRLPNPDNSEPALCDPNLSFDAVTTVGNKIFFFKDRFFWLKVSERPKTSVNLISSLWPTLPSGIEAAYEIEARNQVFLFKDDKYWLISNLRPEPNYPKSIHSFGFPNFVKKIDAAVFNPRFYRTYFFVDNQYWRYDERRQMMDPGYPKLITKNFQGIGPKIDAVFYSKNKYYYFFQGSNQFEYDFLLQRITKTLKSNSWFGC

As to `CC(C)(C)[C@H](NC(=O)[C@H](Cc1ccncc1)NC(=O)CNC(=O)CC[C@H](NS(=O)(=O)c1ccc(Cl)c(C(F)(F)F)c1)C(=O)O)C(=O)Nc1ccc(C(=O)N2CCC(C(=O)N[C@H](CCCCN)C(=O)N3CC[C@H](N)C3)CC2)cc1`, the inhibition at 10 µM is -13.9% in series [1]; 0.5% in [2]; -4.8% in series [3]; 6.4% in [4]; -5% in [11]; -11.5% in [12]. The inhibition at 10 µM in [14] is -2.9%; in [21], 2.5%. Also, the “Cp(f)” value in series [5] came to 1.32 nM; in [15], 6.56 nM. In addition, the remaining at 336 h was 99.1% in series [6] and 98.2% in series [19]. Moreover, the Vd in [7] came to 0.179 L/kg; in series [10] it was 0.145 L/kg. This compound also yielded a fraction unbound in [8] of 0.2. Besides, the IC50 in [9] was > 10 µM; in series [17] it was 0.73 µM. Moreover, in [13], the Activity result was “Non-Toxic”. Besides, in [16], the remaining at 24 h was 101%. The clearance is 0.211 L/h/kg in series [18] and 0.0551 L/h/kg in series [20].

For the origin of these results see ChEMBL document CHEMBL5537178, “Discovery of TP0628103: A Highly Potent and Selective MMP-7 Inhibitor with Reduced OATP-Mediated Clearance Designed by Shifting Isoelectric Points” (J Med Chem, 2024).
